Results reported in ChEMBL document CHEMBL3351514, “Design and synthesis of new of 3-(benzo[d]isoxazol-3-yl)-1-substituted pyrrolidine-2, 5-dione derivatives as anticonvulsants” (Eur J Med Chem, 2014).
Activity calls are given as the source filed them. The calls are words filed in the database; no cut-off is given here.

tested on: Rattus norvegicus; assay: Neurotoxicity in albino Wistar rat at 300 mg/kg, ip at 0.5 hr by rotorod test; assay type: toxicity, organism-based; design: dose 300 mg/kg, route intraperitoneal; details: in vivo

Compound	Activity
CCC1(C)CC(=O)NC1=O (stereo unspecified) [ETHOSUXIMIDE]	Non-toxic

tested on: not listed separately; assay: in vivo; details: Wistar, rat, po
Description: Protective index, ratio of TD50 for neurotoxicity in po dosed albino Wistar rat to ED50 for anticonvulsant activity in po dosed albino Wistar rat assessed as protection against subcutaneous pentylenetetrazol-induced seizures at 2 hrs

Compound	selectivity ratio at 2 h
CCC1(C)CC(=O)NC1=O (stereo unspecified) [ETHOSUXIMIDE]	> 3

tested on: Mus musculus; assay: Anticonvulsant activity in ip dosed albino Swiss mouse assessed as protection against maximal electroshock-induced seizures at 0.5 hr; assay type: functional; details: not given

Compound	MED50 [mg/kg]
O=C1CC(c2noc3ccccc23)C(=O)N1c1ccc(Cl)cc1 (stereo unspecified)	300
O=C1CC(c2noc3ccccc23)C(=O)N1c1ccccn1 (stereo unspecified)	300
CCCN1C(=O)CC(c2noc3ccccc23)C1=O (stereo unspecified)	300
CCN1C(=O)CC(c2noc3ccccc23)C1=O (stereo unspecified)	300
O=C1CC(c2noc3ccccc23)C(=O)N1c1ccncc1 (stereo unspecified)	300

tested on: Mus musculus; assay: Anticonvulsant activity in albino Swiss mouse assessed as protection against maximal electroshock-induced seizures at 300 mg/kg, ip at 4 hrs; assay type: functional, organism-based; design: dose 300 mg/kg; details: not given

Compound	Activity
O=C1CC(c2noc3ccccc23)C(=O)N1c1ccc(Cl)cc1 (stereo unspecified)	inactive
O=C1CC(c2noc3ccccc23)C(=O)N1c1ccccn1 (stereo unspecified)	inactive
CCCN1C(=O)CC(c2noc3ccccc23)C1=O (stereo unspecified)	inactive
CCC1(C)CC(=O)NC1=O (stereo unspecified) [ETHOSUXIMIDE]	inactive
CCN1C(=O)CC(c2noc3ccccc23)C1=O (stereo unspecified)	inactive
O=C1CC(c2noc3ccccc23)C(=O)N1c1cccnc1 (stereo unspecified)	inactive
O=C1CC(c2noc3ccccc23)C(=O)N1c1ccncc1 (stereo unspecified)	inactive

tested on: Rattus norvegicus; assay: Anticonvulsant activity in albino Wistar rat assessed as protection against subcutaneous pentylenetetrazol-induced seizures at 50 mg/kg, po at 0.5 hr; assay type: functional; details: not given

Compound	Activity [%]
CCC1(C)CC(=O)NC1=O (stereo unspecified) [ETHOSUXIMIDE]	50

tested on: Rattus norvegicus; assay: Anticonvulsant activity in po dosed albino Wistar rat assessed as protection against subcutaneous pentylenetetrazol-induced seizures at 2 hrs; assay type: functional; details: not given

Compound	ED50 [mg/kg]
CCC1(C)CC(=O)NC1=O (stereo unspecified) [ETHOSUXIMIDE]	167

tested on: Rattus norvegicus; assay: Anticonvulsant activity in albino Wistar rat assessed as protection against subcutaneous pentylenetetrazol-induced seizures at 50 mg/kg, po at 1 hr; assay type: functional; details: not given

Compound	Activity [%]
CCC1(C)CC(=O)NC1=O (stereo unspecified) [ETHOSUXIMIDE]	25

tested on: Mus musculus; assay: Anticonvulsant activity in albino Swiss mouse assessed as assessed as protection against subcutaneous pentylenetetrazol-induced seizures at 300 mg/kg, ip at 0.5 hr; assay type: functional, organism-based; design: dose 300 mg/kg; details: not given

Compound	Activity
O=C1CC(c2noc3ccccc23)C(=O)N1c1cccnc1 (stereo unspecified)	inactive

tested on: Mus musculus; assay: Anticonvulsant activity in albino Swiss mouse assessed as assessed as protection against subcutaneous pentylenetetrazol-induced seizures at 300 mg/kg, ip at 4 hrs; assay type: functional, organism-based; design: dose 300 mg/kg; details: not given

Compound	Activity
O=C1CC(c2noc3ccccc23)C(=O)N1c1ccc(Cl)cc1 (stereo unspecified)	inactive
O=C1CC(c2noc3ccccc23)C(=O)N1c1ccccn1 (stereo unspecified)	inactive
CCCN1C(=O)CC(c2noc3ccccc23)C1=O (stereo unspecified)	inactive
CCN1C(=O)CC(c2noc3ccccc23)C1=O (stereo unspecified)	inactive
O=C1CC(c2noc3ccccc23)C(=O)N1c1cccnc1 (stereo unspecified)	inactive
O=C1CC(c2noc3ccccc23)C(=O)N1c1ccncc1 (stereo unspecified)	inactive

tested on: Mus musculus; assay: Anticonvulsant activity in albino Swiss mouse assessed as protection against maximal electroshock-induced seizures at 300 mg/kg, ip at 0.5 hr; assay type: functional, organism-based; design: dose 300 mg/kg; details: not given

Compound	Activity
CCC1(C)CC(=O)NC1=O (stereo unspecified) [ETHOSUXIMIDE]	inactive
O=C1CC(c2noc3ccccc23)C(=O)N1c1cccnc1 (stereo unspecified)	inactive

tested on: not listed separately; assay: Neurotoxicity in po dosed albino Wistar rat at 2 hrs by rotorod test; assay type: toxicity, organism-based; details: in vivo

Compound	TD50 at 2 h [mg/kg]
CCC1(C)CC(=O)NC1=O (stereo unspecified) [ETHOSUXIMIDE]	> 500

tested on: Rattus norvegicus; assay: Anticonvulsant activity in albino Wistar rat assessed as protection against subcutaneous pentylenetetrazol-induced seizures at 50 mg/kg, po at 2 hrs; assay type: functional; details: not given

Compound	Activity [%]
CCC1(C)CC(=O)NC1=O (stereo unspecified) [ETHOSUXIMIDE]	25

tested on: Rattus norvegicus; assay: Neurotoxicity in albino Wistar rat at 300 mg/kg, ip at 4 hrs by rotorod test; assay type: toxicity, organism-based; design: dose 300 mg/kg, route intraperitoneal; details: in vivo

Compound	Activity
CCC1(C)CC(=O)NC1=O (stereo unspecified) [ETHOSUXIMIDE]	Non-toxic

tested on: Mus musculus; assay: Anticonvulsant activity in ip dosed albino Swiss mouse assessed as assessed as protection against subcutaneous pentylenetetrazol-induced seizures at 0.5 hr; assay type: functional; details: not given

Compound	MED50 [mg/kg]
O=C1CC(c2noc3ccccc23)C(=O)N1c1ccc(Cl)cc1 (stereo unspecified)	300
O=C1CC(c2noc3ccccc23)C(=O)N1c1ccccn1 (stereo unspecified)	300
CCCN1C(=O)CC(c2noc3ccccc23)C1=O (stereo unspecified)	300
CCC1(C)CC(=O)NC1=O (stereo unspecified) [ETHOSUXIMIDE]	100
CCN1C(=O)CC(c2noc3ccccc23)C1=O (stereo unspecified)	300
O=C1CC(c2noc3ccccc23)C(=O)N1c1ccncc1 (stereo unspecified)	300

tested on: Mus musculus; assay: Anticonvulsant activity in ip dosed albino Swiss mouse assessed as assessed as protection against subcutaneous pentylenetetrazol-induced seizures at 4 hrs; assay type: functional; details: not given

Compound	MED50 [mg/kg]
CCC1(C)CC(=O)NC1=O (stereo unspecified) [ETHOSUXIMIDE]	300
